Results from patent publication US20160031909A1, “PORPHYRAZINE OPTICAL AND DUAL OPTICAL/ MR CONTRAST AND THERAPEUTIC AGENTS” (HOFFMAN/BARRETT, LLC, priority 2013, published 2016).
“Also recorded” adds a separate entry of the source. Read-outs that look alike come from different tables or passages of the source.

Assays:
[1] = monomeric DOTA-Gd(III), shown for comparison (ref 17), cited from earlier work
[2] = test system: MDA-MB-231 orthotopic breast tumor; assay: In vivo tumor MRI in orthotopic breast tumor model; set-up: species or system athymic nude mice; details: 0-225 min after tail vein injection; Cu-Pz-Gd(III) 450 nmol (50 mg/kg), DOTA-Gd(III) 900 nmol (25 mg/kg)
Procedure: Cu-Pz-Gd(III) was examined as a contrast agent in vivo in an orthotopic breast tumor model in athymic nude mice. MDA-MB-231 breast tumor cells expressing mCherry fluorescent protein were implanted in the mammary fat pad of mice and tumors were allowed to grow to about 5 mm in diameter at which time mice were treated with 450 nmol (50 mg/kg) Cu-Pz-Gd(III) together with saline treated control mice (FIG. 3A).
In a separate experiment focusing only on short time points (0-225 min), groups of mice (n=3) were treated with Cu-Pz-Gd(III) (450 nmol, 50 mg/kg), DOTA-Gd(I I I) (900 nmol, 25 mg/kg), and saline as a negative control (FIG. 4). Mice were imaged continuously after tail vein injections. […] Regions of interest (ROIs) were defined outside the periphery of tumors, at the inner rim, and at the center.
MDA-MB-231 cells (1×10^6) expressing mCherry fluorescent protein were inoculated subcutaneously (1:1 v/v matrigel:PBS) on the right mammary fat pad. Cells were maintained in DMEM media supplemented with 10% FBS prior to inoculation. The athymic nude mice, Crl:NU(NCr)-Foxnl^nm, were purchased from Charles River, Portage at 5-6 weeks old and 16-18 gram were allowed to acclimate for 5 days. One week post inoculation, each animal was screened for mCherry fluorescence wavelength using the IVIS small animal fluorescence imaging system to verify presence of the tumor.
Mice were anesthetized in an induction chamber with 3% inhaled isoflurane in oxygen, then transferred to an imaging bed with circulating warm water heating system, MRI compatible respiratory monitoring (SA Instruments, Stony Brook, N.Y.) and 1-2% isoflurane delivered via nosecone to maintain a surgical plane of anesthesia with respiratory rate at 90-100 breaths/min Mice were imaged prone with the tumor centered in a 40 mm diameter quadrature volume coil (Bruker Biospec, Billerica, Mass.). An AutoPac automated positioning system was used to reproducibly center the animals in the MRI system.
Mice were positioned in the MRI scanner as described above and localizer images were acquired. T1 maps were acquired using a FAIR-RARE non-selective inversion recovery sequence with static TR (18,000 ms) and TE (6.1 ms), and variable TI (30.5, 100, 200, 300, 500, 600, 700, 800, 900, 1000, 1100, 1200, 1300, 1400, 1600, 2000, 2500, 3000, 3500, 4000, 4500, 5000, and 6000 ms). Imaging parameters were as follows: field of view (FOV)=40×20 mm^2, matrix size(MTX)=512×133 pixels, number of slices=1, slice thickness=1.0 mm, and 1 average (total scan time=5 m 26 s).
Images were acquired at baseline, and 4, 24, and 48 hours after injection of 150 μL of imaging agent via the tail vein. One control animal was injected with saline; the remaining 9 animals were injected with 450 nmol Cu-Pz-Gd(III). Three animals were sacrificed after 4 hour, 24 hour, and 48 hour timepoints, respectively; the organs were collected for ICP-MS (described below) to measure biodistribution.
Mice were positioned in the MRI scanner as described above and localizer images were acquired. To improve signal to noise ratio, reduce respiratory artifacts, and increase tumor coverage, for this study we used a multi slice T1 map acquired using a variable repetition time saturation recovery sequence (RARE-VTR) with static TE (8.2 ms) and variable TR (175, 300, 600, 800, 1200, 2000, 4000 ms). Imaging parameters were as follows: FOV=10×7.5 mm, MTX=80×60, number of axial slices=5, slice thickness=1.0 mm, and 1 average (total scan time=6 min 48 sec). […]

[3] = Octanol-water partition coefficients by ICP-MS; format: physicochemical; details: 1:1 water:1-octanol, 48 hours, Gd by ICP-MS
Procedure: Octanol-water partition coefficients (log P) were measured by ICP-MS to determine the hydrophilicity of the Pz-Gd(III) conjugates (4d, 18). The hydrophilicity of a molecule dictates cellular permeability where a balance in amphiphilicity is desired for ease of aqueous administration and maximum cellular uptake (19). Cu-Pz-Gd(III) is slightly more hydrophobic than Zn-Pz-Gd(III) and both conjugates are more hydrophobic than DOTA-Gd(III).
DOTA-Gd(I I I), Zn-Pz-Gd(III), and Cu-Pz-Gd(III) (0.5 mg) were dissolved in 1 mL of a 1:1 mixture of water:1-octanol, respectively. After shaking for 30 seconds, these tubes were placed on a rotator for gentle mixing to equilibrate for 48 hours. Gd(III) concentration in each layer was determined by ICP-MS. Partition coefficients were calculated from the equation log P=log(Co/Cw), where log P is the logarithm of the partition coefficient, Co is the concentration of Gd in the 1-octanol layer, and Cw is the concentration of Gd in the water layer.

[4] = Relaxation time measurements (longitudinal relaxivity r1); format: physicochemical; details: water, 1.41 T (60 MHz), 37° C.
Source text: The efficiency of a contrast agent in reducing the longitudinal relaxation time of water protons is defined in terms as relaxivity (mM^−1 s^−1) (14). It has been predicted by Solomon-Bloembergen-Morgan theory that a slow molecule tumbling of an MRI agent causes an increase in rotational correlation time, Tr, which in turn results in increase in relaxivity (14, 15). A common approach to increase relaxivity by slowing down the molecular tumbling is to attach Gd(III) complexes to a macromolecule through rigid linkages (12,16). The relaxivity of the monomeric DOTA-Gd(III) (DOTA is 1,4,7,10-tetraazacyclododecane-N,N,N″,N″-tetraacetic acid) used in the clinic is shown for comparison (17). […] Both the Zn-Pz-Gd(III) and Cu-Pz-Gd(III) had higher longitudinal relaxivity than DOTAGd(III).
Solutions of M-Pz-Gd(III) (M=Zn, Cu) conjugates were dissolved in 500 μL of filtered, deionized H20 (18.2 MΩ·cm) for T1 acquisition. Relaxation times were measured on a Bruker mq60 NMRanalyzer equipped with Minispec v2.51 Rev.00/NT software (Bruker Biospin, Billerica, Mass., USA) operating at 1.41 T (60 MHz) and 37° C. T1 relaxation times were measured using an inversion recovery pulse sequence (T1—ir_mb) using the following parameters: 4 scans per point, 10 data points for fitting, mono-exponential curve fitting, phase cycling, 10 ms first pulse separation, and a recycle delay and final pulse separation≧5 T1. The gadolinium concentrations of each solution were determined using ICP-MS. The inverse of the longitudinal relaxation time (1/ T1, s^−1) was plotted against gadolinium concentration (mM) and fitted to a straight line with an R^2>0.99. The slope of the fitted line was recorded as the relaxivity, r1.

Water solubility = format: physicochemical
Procedure: The pz platform is diol pz 285, which was prepared and activated for nucleophilic substitution by arenesulfonylation to produce bis-tosylate pz 286 as previously described (13). Subsequent nucleophilic substitution of pz 286 with excess sodium azide gave diazide pz 288, which was suitable for conjugation via cycloaddition reactions with the alkyne-functionalized Gd595. (Scheme 1). The use of catalytic copper(II) sulfate in this conjugation reaction partially metallates the pz core. To address this issue, pz 288 either was metallated with ZnCl2 prior to reaction with the alkyne or a stoichiometric amount of the […] catalyst was used to ensure that the pz core was completely cuprated. Standard cycloaddition reaction conditions were subsequently used to conjugate metallated pz diazides with Gd595 to produce Zn-Pz-Gd(III) and Cu-Pz-Gd(III) conjugates, which were isolated by preparative HPLC in 52% and 57% isolated yields, respectively. Trace amounts of Zn-Pz-Gd(III) were transmetallated to Cu-Pz-Gd(III), but this small amount was removed during purification.

For `O=C([O-])CN1CCN(CC(=O)[O-])CCN(CC(=O)O)CCN(CC(=O)[O-])CC1.[Gd+3]` [DOTA-Gd(III), reference compound], the “Molecular r1” value ([1]; 1 Gd(III)) is given as 3.1 mM^−1 S^−1, the “Ionic r1” value [1] is given as 3.1 mM^−1 S^−1 and the “tumor T1 over time” value [2] is given as “dips transiently but returns quickly to baseline; also recorded: enters the tumor, but is cleared relatively rapidly; also recorded: initial decrease in tumor T1 followed by recovery of signal”. For the same compound, the “log P” value [3] was −3.42.

With “Zn[Pz(C17H27N5O7Gd)2]. Pz=18,21-bis(2-(1H-1,2,3-triazole-4-yl) ethoxy)-tris-[1,4-dioxino[g,l,q](2R,3R)-2,3-dimethoxy-2,3-dimethyll 25H,27H-benzo[b]porphyrazine; C17H27N5O7Gd=N-methyl-2-aminoacetamide-4,7,10-tris(carboxymethyl)-1,4,7,10-tetraazacyclododecylgadolinium(III)) [Zn-Pz-Gd(III)]” the “Ionic r1” value ([4]; per Gd(III)) was 6.9 mM^−1 S^−1, the “Molecular r1” value ([4]; per molecule (2 Gd(III))) was 13.8 mM^−1 S^−1 and the water solubility (Water solubility) was “freely water soluble”. The “log P” value [3] was −3.13.
